In series [1] the test system is KB human nasopharyngeal cancer. As to the kind of experiment: Inhibition of tumor cell proliferation at 10 μM, Model D: SRB method. In kind it is cell-based. Particulars: read-out: Model D Inhibitory rate (%). The text has this:
(§1) The evaluation of the compounds according to the present invention on the inhibition rate of the proliferation of four different tumor cells, using the routine method for anti-tumor activity tests in the pharmaceutical filed, for example the method described in the following literature: (J. Immuno/Method, 1983, 65, 55).

In series [2] the test system is Bel-7402 human liver cancer. As to the kind of experiment: Inhibition of tumor cell proliferation at 10 μM, Model C: SRB method. It is filed as cell-based. The settings on record: Bel-7402, SRB method, read-out: Model C Inhibitory rate (%).
From the text: as §1
For orientation: The SRB assay estimates cell density from bound dye.

The subject of a further series is HL-60 human leukaemia. As to the kind of experiment: Inhibition of tumor cell proliferation at 10 μM, Model A: MTT method. In kind it is cell-based. Particulars: HL-60, MTT method, read-out: Model A Inhibitory rate (%).
From the text: as §1
In general terms: Tetrazolium dyes change colour on reduction, which living cells bring about.

Series [3] deals with BGC-823 human gastric cancer. The experiment in a line: Inhibition of tumor cell proliferation at 10 μM, Model B: SRB method. It is filed as cell-based. The settings on record: BGC-823, SRB method, read-out: Model B Inhibitory rate (%).
From the text: as §1

The test system of series [4] is human leukaemia HL-60 cells. The experiment in a line: EC50 on proliferation of HL-60 cells (MTT, 48 h). It is filed as cell-based. The settings on record: read-out: HL-60 EC50 (nmol). How it is done: (§2) EC50 values of the compounds according to the present invention on the proliferation of human leukaemia HL-60 cells and Bel-7402 cells were determined by using the following method, and the results are shown in Table 2.
Testing method for EC50 values on the human leukaemia HL-60 cells: The human leukaemia HL-60 cells were cultured in vitro. The cells were collected after growth to logarithmic phase, and centrifugated at 1000 rpm for 5 min. The supernatant was discarded and the cells were suspended in an appropriate amount of medium. The cell concentration was adjusted to 1.2×10^4/mL. The cells were seeded into 96-well culture plates in 90 μL per well. For each well of the drug treatment groups, 10 μL of medium-diluted drug was added, whereas for the blank control groups, the same amount of medium was added. Every testing drug was set up for three parallel wells, and also three control wells with only testing drugs (without cell) were set up. Negative control groups were medium containing 0.5% DMSO. After the plate was incubated in an incubator for 48 h, 10 μL of 5 mg/mL MTT was added into each well, and then the plate was placed for 3 h at 37° C. 100 μL of ternary solution (5% SDS, 10 mM HCl, 5% isopropanol) was added into each well, and the plate was kept at 37° C. overnight. The absorbance (OD) was measured at 595 nm/620 nm. The EC50 values were calculated by using Prism Graphpad statistical software.

For another series, the system named is Bel-7402 cells. As to the kind of experiment: EC50 on proliferation of Bel7402 cells (SRB, 48 h). It is filed as cell-based. Particulars: Homo sapiens, read-out: Bel7402 EC50 (nmol). As to the method: as §2
Testing method for ED50 values on the human Be17402ce11: After the cells were incubated with the addition of the drugs for 48 h, the plates were taken out. 50 μL of pre-cooled 500 g/L trichloroacetic acid was added into each well. The plates were kept in 4° C. refrigerator for 1 h after standing for 5 min, taken out, washed with deionized water for 5 times, and dried in the air. After the plates were completely dried, 100 μL of 0.4% SRB (formulated in 1% acetic acid) was added into each well. Following staining for 20 min, the staining solution was discarded, and the residue was washed with 1% acetic acid for 5 times to remove the uncombined dye. After being dried in the air, the residue was dissolved in 150 μL of 10 mmol/L unbuffered
Tris basic solution (pH=10.5), and oscillated in an oscillator for 5 min. The absorbance of each well at 490 nm was measured with TECAN enzyme mark instrument. The cells in background control plates were treated in the same way for measuring OD490. The EC50 values were calculated by using Prism Graphpad statistical software.

A word on the EC50: it is the concentration at which the effect is half-maximal. A word on the melting point: it is the temperature, or range, at which the solid turns liquid.

For `N#CCCSC(=S)NCc1ccco1` [Compound 3, 2-cyanoethyl(furan-2-ylmethyl)dithiocarbamate], the inhibition at 10 µM in series [1] is 55.1%; in series [2] it was 68.2%; in the series on HL-60 human leukaemia it was 24.6%; in series [3], 29.5%.

With `NS(=O)(=O)CCSC(=S)NCc1ccco1` [Compound 5, 2-sulfamoylethyl(furan-2-ylmethyl)dithiocarbamate], the inhibition at 10 µM came out at 31.6% in series [1], 17.5% in series [2], 17.3% in the series with HL-60 human leukaemia and 17.2% in series [3].

In turn, `CC(C)(C)C(=O)Nc1ccncc1CNC(=S)SCCC#N` [Compound 17, 2-cyanoethyl[(4-pivalamidopyridin-3-yl)methyl]dithiocarbamate] displayed a melting point of 122 to 124 °C. Moreover, the EC50 in series [4] stood at 0.473 nM. The EC50 in the series on Bel-7402 cells turned out to be 32.3 nM.

On to `N#CCCSC(=S)NCc1cnc2ccccc2c1` [Compound 18, 2-cyanoethyl(quinolin-3-ylmethyl)dithiocarbamate], for which the melting point is 120 to 122 °C. The EC50 in series [4] is 5.18 nM. The EC50 in the series with Bel-7402 cells was determined as 327 nM.

For the molecule `N#CCCSC(=S)NCCc1cccnc1` [Compound 19, 2-cyanoethyl[2-(pyridin-3-yl)ethyl]dithiocarbamate], the values for the EC50 (in series [4]; with Bel-7402 cells) were 0.796 nM and 18.8 nM, respectively.

The molecule `COc1ncccc1CNC(=S)SCCC#N` [Compound 20, 2-cyanoethyl[(2-methoxypyridin-3-yl)methyl]dithiocarbamate] showed a melting point of 88 to 92 °C. Also, in series [4], the EC50 was determined as 0.8 nM. Besides, the half-maximal effective concentration (EC50) with Bel-7402 cells was found to be 7.67 nM.

On to `COC(=O)c1ccc(CNC(=S)SCCC#N)cn1` [Compound 21, 2-cyanoethyl[(6-methoxycarbonylpyridin-3-yl)methyl]dithiocarbamate], for which the melting point lay within 106 to 112 °C. Further, in series [4], the EC50 amounted to 6.93 nM. For the same molecule, the concentration for a half-maximal effect (EC50) in the series on Bel-7402 cells was 116 nM.

The molecule `Cc1cc(C)c(CNC(=S)SCCC#N)cn1` [Compound 22, 2-cyanoethyl[(4,6-dimethylpyridin-3-yl)methyl]dithiocarbamate] returned a melting point of 138 to 142 °C. For the same molecule, in series [4], the EC50 was found to be 1.72 nM. Besides, the EC50 with Bel-7402 cells stood at 23.4 nM.

For `COc1cncc(CNC(=S)SCCC#N)c1` [Compound 23, 2-cyanoethyl[(5-methoxypyridin-3-yl)methyl]dithiocarbamate], the melting point was in the range of 86 to 90 °C. Further, in series [4], the EC50 came to 0.557 nM. Also, in the series on Bel-7402 cells, the EC50 was found to be 10.3 nM.

For `N#CCCSC(=S)NCc1cncc(Br)c1` [Compound 24, 2-cyanoethyl[(5-bromopyridin-3-yl)methyl]dithiocarbamate], the melting point lay within 102 to 108 °C. Besides, the EC50 in series [4] is 4.91 nM. The EC50 in the series on Bel-7402 cells came out at 20.5 nM.

In the case of `N#CCCSC(=S)NCc1ccc(-c2ccco2)nc1` [Compound 25, 2-cyanoethyl{[6-(furan-2-yl)pyridin-3-yl]methyl}dithiocarbamate], the melting point lay within 118 to 120 °C. Also, in series [4], the EC50 turned out to be 4.78 nM. In addition, the EC50 in the series with Bel-7402 cells was 21.1 nM.

On to `CN1CCOC2C=C(CNC(=S)SCCC#N)C=NC21` (stereo not drawn) [Compound 26, 2-cyanoethyl[(4-methyl-3,4,4a,8a-tetrahydro-2/4-pyrido[3,2-b][1 ,4]oxazin-7-yl)-methyl]dithiocarbamate], for which the melting point fell in the range of 117 to 118 °C. The 50% effective concentration (EC50) in series [4] was determined as 82.2 nM. In addition, in the series on Bel-7402 cells, the EC50 came out at 96.4 nM.

Turning to `N#CCCSC(=S)NCc1ccc(Oc2ccccc2)nc1` [Compound 27, 2-cyanoethyl[(6-phenoxypyridin-3-yl)methyl]dithiocarbamate], the EC50 in series [4] came to 0.548 nM; with Bel-7402 cells, 48.9 nM.

On to `N#CCCSC(=S)NCc1ccncc1` [Compound 28, 2-cyanoethyl(pyridin-4-ylmethyl)dithiocarbamate], for which the figures for the EC50 (in series [4]; in the series with Bel-7402 cells) were 56.5 nM and 10.5 nM, respectively.

With `CN(Cc1cccnc1)C(=S)SCCC#N` [Compound 29, 2-cyanoethyl N-methyl-(pyridin-3-ylmethyl)dithiocarbamate], the EC50 came to 134 nM in series [4] and 2.2 nM in the series on Bel-7402 cells.

As for `N#CCCSC(=S)Nc1cccnc1` [Compound 30, 2-cyanoethyl pyridin-3-yldithiocarbamate], the EC50 amounted to 80.7 nM in series [4] and 286 nM in the series with Bel-7402 cells.

Molecule `N#CCCSC(=S)NC(c1ccccc1)c1cccnc1` (stereo not drawn) [Compound 31, 2-cyanoethyl[phenyl(pyridin-3-yl)methyl]dithiocarbamate] displayed a melting point of 118 to 120 °C. Also, the EC50 in series [4] worked out at 4.7 nM. In addition, the EC50 in the series with Bel-7402 cells was 234 nM.

Take `CC(NC(=S)SCCC#N)c1cccnc1` (stereo not drawn) [Compound 32, 2-cyanoethyl[1-(pyridin-3-yl)ethyl]dithiocarbamate]: the concentration for a half-maximal effect (EC50) in series [4] came to 3.28 nM; in the series on Bel-7402 cells, 64.8 nM.

For the molecule `COc1ccc(CNC(=S)SCCC#N)cn1` [Compound 33, 2-cyanoethyl[(6-methoxypyridin-3-yl)methyl]dithiocarbamate], the melting point fell in the range of 90 to 92 °C. The EC50 in series [4] is 0.813 nM. In the series with Bel-7402 cells, the EC50 came out at 109 nM.

`Cc1nc(-c2ccccc2)oc1CNC(=S)SCCC#N` [Compound 34, 2-cyanoethyl[(4-methyl-2-phenyloxazol-5-yl)methyl]dithiocarbamate] displayed a melting point of 221 to 224 °C. The EC50 in series [4] came out at 7.88 nM. Also, in the series on Bel-7402 cells, the EC50 is 17.9 nM.

As to `Cc1c(CNC(=S)SCCC#N)cnn1-c1ccccc1` [Compound 35, 2-cyanoethyl[(5-methyl-1-phenyl-1H-pyrazol-4-yl)methyl]dithiocarbamate], the results for the EC50 (in series [4]; in the series with Bel-7402 cells) were 6.05 nM and 24.9 nM, respectively.

For the molecule `N#CCCSC(=S)NCc1cncnc1` [Compound 36, 2-cyanoethyl(pyrimidin-5-ylmethyl)dithiocarbamate], the melting point was in the range of 168 to 171 °C.

For the molecule `Cc1cc(CNC(=S)SCCC#N)n(C)n1` [Compound 37, 2-cyanoethyl[(1,3-dimethyl-1H-pyrazol-5-yl)methyl]dithiocarbamate], the results for the EC50 (in series [4]; in the series with Bel-7402 cells) were 4.17 nM and 4.26 nM, respectively.

Take `N#CCCSC(=S)NCc1nccs1` [Compound 38, 2-cyanoethyl(thiazol-2-ylmethyl)dithiocarbamate]: the melting point was 76 to 78 °C. Further, the EC50 in series [4] is 109 nM. For the same molecule, in the series on Bel-7402 cells, the EC50 stood at 296 nM.

`N#CCCSC(=S)NCc1cnccn1` [Compound 39, 2-cyanoethyl(pyrazin-2-ylmethyl)dithiocarbamate] showed a melting point of 96 to 99 °C. Besides, the EC50 in series [4] is more than 1000 nM. Besides, the EC50 in the series with Bel-7402 cells is more than 1000 nM.

Molecule `N#CCCSC(=S)NCc1nnc(-c2ccccc2)o1` [Compound 40, 2-cyanoethyl[(5-phenyl-1,3,4-oxadiazol-2-yl)methyl]dithiocarbamate] yielded a melting point of 148 to 152 °C. Also, the EC50 in series [4] was found to be 14.2 nM. The EC50 with Bel-7402 cells is 25.7 nM.

As to `N#CCCSC(=S)NCc1cnc(N2CCOCC2)nc1` [Compound 41, 2-cyanoethyl[(2-morpholinopyrimidin-5-yl)methyl]dithiocarbamate], the melting point was 151 to 154 °C. In series [4], the EC50 turned out to be 5.03 nM. Also, the 50% effective concentration (EC50) in the series on Bel-7402 cells came to 22.4 nM.

For the molecule `N#CCCSC(=S)NCCCc1cccnc1` [Compound 42, 2-cyanoethyl[3-(pyridin-3-yl)propyl]dithiocarbamate], the melting point was in the range of 81 to 83 °C. For the same molecule, in series [4], the EC50 worked out at 4.82 nM. In addition, in the series with Bel-7402 cells, the EC50 came out at 3.48 nM.

With `N#CCCSC(=S)NCc1nnc(-c2ccccc2)s1` [Compound 45, 2-cyanoethyl[(5-phenyl-1,3,4-thiadiazol-2-yl)methyl]dithiocarbamate], the melting point lay in the range of 156 to 158 °C. Besides, the EC50 in series [4] stood at 11.8 nM. In addition, the concentration for a half-maximal effect (EC50) in the series on Bel-7402 cells was determined as 18.6 nM.

Consider `N#CCCSC(=S)NCc1ccc[nH]1` [Compound 46, 2-cyanoethyl[(1H-pyrrol-2-yl)methyl]dithiocarbamate], for which the values for the EC50 (in series [4]; in the series on Bel-7402 cells) were 282 nM and 227 nM, respectively.

(Values after patent publication US20130136794A1, “HETEROARYL (ALKYL) DITHIOCARBAMATE COMPOUNDS, PREPARATION METHODS AND USES THEREOF” (PEKING UNIVERSITY, priority 2010, published 2013).)
